Measured values from patent EP0908457B1, “3-(1,2-benzisothiazol- and isoxazol-5-Y1)-2,4(1H,3H)-pyrimidinedione or thione and 3-(1,2-benzisothiazol- and isoxazol-5-y1)-4(3H)-pyrimidinone or thione herbicidal agents” (BASF AKTIENGESELLSCHAFT, priority 1997, dated 1999).

Experiments:
[1] = tested on: Echinochloa oryzoides (Ard.) Fritsch.; assay: Preemergence weed control under flooded paddy conditions, ECHORC (Watergrass (Calif.)); assay type: in vivo; details: preemergence, flooded paddy, rated three to four weeks after treatment; further: meaning of each grade not given here
Cyperus iria [2] = assay: Preemergence weed control under flooded paddy conditions, CYPIR (Rice Flatsedge); assay type: in vivo; details: preemergence, flooded paddy, rated three to four weeks after treatment; further: meaning of each grade not given here
[3] = tested on: Cyperus serotinus, Rottb.; assay: Preemergence weed control under flooded paddy conditions, CYPSE (Flatsedge); assay type: in vivo; details: preemergence, rated three to four weeks after treatment; further: meaning of each grade not given here
[4] = tested on: Monochoria vaginalis, Presl.; assay: Preemergence weed control under flooded paddy conditions, MOOVA (Monochoria); assay type: in vivo; details: preemergence, flooded paddy, rated three to four weeks after treatment; further: meaning of each grade not given here
Sagittaria pygmaea, L. [5] = assay: Preemergence weed control under flooded paddy conditions, SAGPY (Arrowhead (Pygmaea)); assay type: in vivo; details: preemergence, flooded paddy, rated three to four weeks after treatment; further: meaning of each grade not given here
[6] = tested on: Echinochloa oryzoides (Ard.) Fritsch.; assay: Postemergence weed control under flooded paddy conditions, ECHORC (Watergrass (Calif.)); assay type: in vivo; details: rated three to four weeks after treatment
Cyperus iria [7] = assay: Postemergence weed control under flooded paddy conditions, CYPIR (Rice Flatsedge); assay type: in vivo; details: rated three to four weeks after treatment
[8] = tested on: Cyperus serotinus, Rottb.; assay: Postemergence weed control under flooded paddy conditions, CYPSE (Flatsedge); assay type: in vivo; details: rated three to four weeks after treatment
[9] = tested on: Monochoria vaginalis, Presl.; assay: Postemergence weed control under flooded paddy conditions, MOOVA (Monochoria); assay type: in vivo; details: rated three to four weeks after treatment
Sagittaria pygmaea, L. [10] = assay: Postemergence weed control under flooded paddy conditions, SAGPY (Arrowhead (Pygmaea)); assay type: in vivo; details: rated three to four weeks after treatment
[11] = tested on: Oryza sativa, (L.) Tebonnet; assay: Rice tolerance to post-transplant applications under flooded paddy conditions (Example 187), ORYSAT (Rice, Tebonnet); details: rated three to four weeks after treatment; further: meaning of each grade not given here
[12] = tested on: Oryza sativa, (L.) Tebonnet; assay: Rice tolerance to post-transplant applications under flooded paddy conditions (Example 188), ORYSAT (Rice, Tebonnet); details: rated three to four weeks after treatment

SMILES: COCc1nsc2cc(F)c(-n3c(=O)cc(C(F)(F)F)n(C)c3=O)cc12 [Example 378, 2,4(1H,3H)-Pyrimidinedione, 3-[6-fluoro-3-(methoxymethyl)-1,2-benzisothiazol-5-yl]-1-methyl-6-(trifluoromethyl)-]
- herbicidal effect rating, ECHORC ([1]; Rate 0.0320 kg/ha): 9.0
- herbicidal effect rating, ECHORC ([1]; Rate 0.0620 kg/ha): 9.0
- herbicidal effect rating, ECHORC ([1]; Rate 0.1250 kg/ha): 9.0
- herbicidal effect rating, ECHORC ([1]; Rate 0.2500 kg/ha): 9.0
- herbicidal effect rating, CYPIR (Cyperus iria [2]; Rate 0.0320 kg/ha): 9.0
- herbicidal effect rating, CYPIR (Cyperus iria [2]; Rate 0.0620 kg/ha): 9.0
- herbicidal effect rating, CYPIR (Cyperus iria [2]; Rate 0.1250 kg/ha): 9.0
- herbicidal effect rating, CYPIR (Cyperus iria [2]; Rate 0.2500 kg/ha): 9.0
- herbicidal effect rating, CYPSE ([3]; Rate 0.0320 kg/ha): 9.0
- herbicidal effect rating, CYPSE ([3]; Rate 0.0620 kg/ha): 9.0
- herbicidal effect rating, CYPSE ([3]; Rate 0.1250 kg/ha): 9.0
- herbicidal effect rating, CYPSE ([3]; Rate 0.2500 kg/ha): 9.0
- herbicidal effect rating, MOOVA ([4]; Rate 0.0320 kg/ha): 9.0
- herbicidal effect rating, MOOVA ([4]; Rate 0.0620 kg/ha): 9.0
- herbicidal effect rating, MOOVA ([4]; Rate 0.1250 kg/ha): 9.0
- herbicidal effect rating, MOOVA ([4]; Rate 0.2500 kg/ha): 9.0
- herbicidal effect rating, SAGPY (Sagittaria pygmaea, L. [5]; Rate 0.0320 kg/ha): 9.0
- herbicidal effect rating, SAGPY (Sagittaria pygmaea, L. [5]; Rate 0.0620 kg/ha): 9.0
- herbicidal effect rating, SAGPY (Sagittaria pygmaea, L. [5]; Rate 0.1250 kg/ha): 9.0
- herbicidal effect rating, SAGPY (Sagittaria pygmaea, L. [5]; Rate 0.2500 kg/ha): 9.0
- herbicidal effect rating, ECHORC ([6]; Rate 0.0320 kg/ha): 9.0
- herbicidal effect rating, ECHORC ([6]; Rate 0.0620 kg/ha): 9.0
- herbicidal effect rating, ECHORC ([6]; Rate 0.1250 kg/ha): 9.0
- herbicidal effect rating, CYPIR (Cyperus iria [7]; Rate 0.0320 kg/ha): 9.0
- herbicidal effect rating, CYPIR (Cyperus iria [7]; Rate 0.0620 kg/ha): 9.0
- herbicidal effect rating, CYPIR (Cyperus iria [7]; Rate 0.1250 kg/ha): 9.0
- herbicidal effect rating, CYPSE ([8]; Rate 0.0320 kg/ha): 9.0
- herbicidal effect rating, CYPSE ([8]; Rate 0.0620 kg/ha): 9.0
- herbicidal effect rating, CYPSE ([8]; Rate 0.1250 kg/ha): 9.0
- herbicidal effect rating, MOOVA ([9]; Rate 0.0320 kg/ha): 9.0
- herbicidal effect rating, MOOVA ([9]; Rate 0.0620 kg/ha): 9.0
- herbicidal effect rating, MOOVA ([9]; Rate 0.1250 kg/ha): 9.0
- herbicidal effect rating, SAGPY (Sagittaria pygmaea, L. [10]; Rate 0.0320 kg/ha): 9.0
- herbicidal effect rating, SAGPY (Sagittaria pygmaea, L. [10]; Rate 0.0620 kg/ha): 9.0
- herbicidal effect rating, SAGPY (Sagittaria pygmaea, L. [10]; Rate 0.1250 kg/ha): 9.0
- herbicidal effect rating ORYSAT ([11]; Rate 0.0320 kg/ha): 9.0
- herbicidal effect rating ORYSAT ([11]; Rate 0.0620 kg/ha): 9.0
- herbicidal effect rating ORYSAT ([11]; Rate 0.1250 kg/ha): 9.0
- herbicidal effect rating ORYSAT ([11]; Rate 0.2500 kg/ha): 9.0
- herbicidal effect rating, ORYSAT (rice tolerance) ([12]; Rate 0.0320 kg/ha): 8.0
- herbicidal effect rating, ORYSAT (rice tolerance) ([12]; Rate 0.0620 kg/ha): 8.0
- herbicidal effect rating, ORYSAT (rice tolerance) ([12]; Rate 0.1250 kg/ha): 9.0

SMILES: COc1cc2c(cc1-c1nsc3ccc(-n4c(=O)cc(C(F)(F)F)n(C)c4=O)cc13)CCC2 [Example 380, 2,4(1H,3H)-Pyrimidinedione, 3-[3-(6-methoxy-5-indanyl)-1,2-benzisothiazol-5-yl]-1-methyl-6-(trifluoromethyl)-]
- herbicidal effect rating, ECHORC ([1]; Rate 0.0320 kg/ha): 9.0
- herbicidal effect rating, ECHORC ([1]; Rate 0.0620 kg/ha): 9.0
- herbicidal effect rating, ECHORC ([1]; Rate 0.1250 kg/ha): 9.0
- herbicidal effect rating, ECHORC ([1]; Rate 0.2500 kg/ha): 9.0
- herbicidal effect rating, CYPIR (Cyperus iria [2]; Rate 0.0320 kg/ha): 9.0
- herbicidal effect rating, CYPIR (Cyperus iria [2]; Rate 0.0620 kg/ha): 9.0
- herbicidal effect rating, CYPIR (Cyperus iria [2]; Rate 0.1250 kg/ha): 9.0
- herbicidal effect rating, CYPIR (Cyperus iria [2]; Rate 0.2500 kg/ha): 9.0
- herbicidal effect rating, CYPSE ([3]; Rate 0.0320 kg/ha): 3.5
- herbicidal effect rating, CYPSE ([3]; Rate 0.0620 kg/ha): 3.5
- herbicidal effect rating, CYPSE ([3]; Rate 0.1250 kg/ha): 8.0
- herbicidal effect rating, CYPSE ([3]; Rate 0.2500 kg/ha): 8.0
- herbicidal effect rating, MOOVA ([4]; Rate 0.0320 kg/ha): 9.0
- herbicidal effect rating, MOOVA ([4]; Rate 0.0620 kg/ha): 9.0
- herbicidal effect rating, MOOVA ([4]; Rate 0.1250 kg/ha): 9.0
- herbicidal effect rating, MOOVA ([4]; Rate 0.2500 kg/ha): 9.0
- herbicidal effect rating, SAGPY (Sagittaria pygmaea, L. [5]; Rate 0.0320 kg/ha): 0.0
- herbicidal effect rating, SAGPY (Sagittaria pygmaea, L. [5]; Rate 0.0620 kg/ha): 0.0
- herbicidal effect rating, SAGPY (Sagittaria pygmaea, L. [5]; Rate 0.1250 kg/ha): 4.0
- herbicidal effect rating, SAGPY (Sagittaria pygmaea, L. [5]; Rate 0.2500 kg/ha): 9.0
- herbicidal effect rating, ECHORC ([6]; Rate 0.0320 kg/ha): 7.0
- herbicidal effect rating, ECHORC ([6]; Rate 0.0620 kg/ha): 8.0
- herbicidal effect rating, ECHORC ([6]; Rate 0.1250 kg/ha): 9.0
- herbicidal effect rating, ECHORC ([6]; Rate 0.2500 kg/ha): 9.0
- herbicidal effect rating, CYPIR (Cyperus iria [7]; Rate 0.0320 kg/ha): 9.0
- herbicidal effect rating, CYPIR (Cyperus iria [7]; Rate 0.0620 kg/ha): 9.0
- herbicidal effect rating, CYPIR (Cyperus iria [7]; Rate 0.1250 kg/ha): 9.0
- herbicidal effect rating, CYPIR (Cyperus iria [7]; Rate 0.2500 kg/ha): 9.0
- herbicidal effect rating, CYPSE ([8]; Rate 0.0320 kg/ha): 0.0
- herbicidal effect rating, CYPSE ([8]; Rate 0.0620 kg/ha): 2.0
- herbicidal effect rating, CYPSE ([8]; Rate 0.1250 kg/ha): 2.0
- herbicidal effect rating, CYPSE ([8]; Rate 0.2500 kg/ha): 8.0
- herbicidal effect rating, MOOVA ([9]; Rate 0.0320 kg/ha): 9.0
- herbicidal effect rating, MOOVA ([9]; Rate 0.0620 kg/ha): 9.0
- herbicidal effect rating, MOOVA ([9]; Rate 0.1250 kg/ha): 9.0
- herbicidal effect rating, MOOVA ([9]; Rate 0.2500 kg/ha): 9.0
- herbicidal effect rating, SAGPY (Sagittaria pygmaea, L. [10]; Rate 0.0320 kg/ha): 0.0
- herbicidal effect rating, SAGPY (Sagittaria pygmaea, L. [10]; Rate 0.0620 kg/ha): 0.0
- herbicidal effect rating, SAGPY (Sagittaria pygmaea, L. [10]; Rate 0.1250 kg/ha): 2.0
- herbicidal effect rating, SAGPY (Sagittaria pygmaea, L. [10]; Rate 0.2500 kg/ha): 8.0
- herbicidal effect rating ORYSAT ([11]; Rate 0.0320 kg/ha): 2.5
- herbicidal effect rating ORYSAT ([11]; Rate 0.0620 kg/ha): 4.0
- herbicidal effect rating ORYSAT ([11]; Rate 0.1250 kg/ha): 5.0
- herbicidal effect rating ORYSAT ([11]; Rate 0.2500 kg/ha): 6.5
- herbicidal effect rating, ORYSAT (rice tolerance) ([12]; Rate 0.0320 kg/ha): 3.0
- herbicidal effect rating, ORYSAT (rice tolerance) ([12]; Rate 0.0620 kg/ha): 7.0
- herbicidal effect rating, ORYSAT (rice tolerance) ([12]; Rate 0.1250 kg/ha): 7.0
- herbicidal effect rating, ORYSAT (rice tolerance) ([12]; Rate 0.2500 kg/ha): 7.0
